Results: patent US20110263454A1, “Methods of Identifying Functional Characteristics of Promoters, Transcription Modifying Proteins and Transcription Modulating Agents” (Salk Institute for Biological Studies, priority 2008, published 2011)

Tests used:
Bmal1 promoter = assay: NHR-promoter luciferase screen, Bmal1 promoter; assay type: cell-based, mouse; conditions: for Luc. act., normalized to lacZ / Normalized Luc. act., normalized to control: Bmal1 promoter, HR component without or with ligand; for mBmal1 promoter reporter activity: transcription factor +/- ligand, control = 1.00
Outline: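 Luciferase activity was measured 48 h after transfection, normalized to LacZ and then to a control lacking NHR or ligand. CV-1 cells carried 100 ng Bmal1 reporter, 50 ng NHR construct and 50 ng LacZ.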

SREBP1c promoter = assay: NHR-promoter luciferase screen, SREBP1c promoter; assay type: cell-based, mouse; conditions: for Luc. act., normalized to lacZ / Normalized Luc. act., normalized to control: SREBP1c promoter, HR component without or with ligand; for mSREBP1-c promoter reporter activity: transcription factor +/- ligand, control = 1.00
Outline: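 Values are luciferase activity normalised to LacZ (transfection control) and to a control lacking NHR or ligand. Read-out at 48 h in CV-1 cells carrying 100 ng promoter-reporter, 50 ng receptor (alone or with RXR) and 50 ng LacZ.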

FGF1A promoter = assay: FGF family promoter luciferase reporter screen by NHRs, FGF1A; assay type: cell-based, human; conditions: FIG. 43, in words
Excerpt: (§1) Screening for FGF regulation by NHRs. The methods described herein provide a straightforward, high throughput, sensitive and quantitative strategy to identify therapeutic agonists and antagonists that can predictably modulate FGF and FGFR expression for therapeutic benefit. Promoter constructs were designed and screened for all 22 members of the FGF-family for novel regulation by the NHRs. Of particular interest is the strong and specific transcriptional regulation of FGF1A, one of the alternative splice variants of FGF1, by PPARγ (FIG. 43). The FGF 1 gene is regulated by at least three (A, B and D) different promoters. Alternative splicing of these promoters to the three exons of the FGF1 gene results in identical but differentially expressed FGF1 polypeptides (FIG. 44). FGF1A is highly expressed in heart, kidney and adipose, FGF1B is highly expressed in brain and FGF1D is highly expressed in liver.
FGF1A promoter analysis. To gain more insight into the regulation of the FGF1A promoter by PPARγ, the putative PPRE was localized. […] The evolutionary conservation of FGF1A was determined and found to be highly conserved in a wide range of mammals (bovine, canine, horse, chimpanzee, human, orangutan, rat, mouse, and opossum). […] In addition to a strong conservation of the PPRE in this promoter, several other highly conserved elements were detected (e.g. SP1, HMTB, EVI1 and E-box).

FGF1D promoter = assay: FGF family promoter luciferase reporter screen by NHRs, FGF1D; assay type: cell-based, human; conditions: FIG. 43, in words
Excerpt: as §1

Row | Molecule | Luc. act., normalized to lacZ (Bmal1 promoter) | Normalized Luc. act., normalized to control (Bmal1 promoter) | mBmal1 promoter reporter activity (Bmal1 promoter) | Luc. act., normalized to lacZ (SREBP1c promoter) | Normalized Luc. act., normalized to control (SREBP1c promoter) | mSREBP1-c promoter reporter activity (SREBP1c promoter) | activation of FGF1A promoter, luciferase reporter assay (FGF1A promoter) | activation of FGF1D promoter, luciferase reporter assay (FGF1D promoter) | regulation of the SREBP1c promoter (SREBP1c promoter; FIG. 2b, in words)
1 | PPARg: Peroxisome proliferator activated receptor γ (NR1C3), cDNA driver | 13.8 | 0.9 | 0.88 | 795.8 | 2.5 | 2.47 | strong activation | moderate activation | –
2 | LXRa: Liver X Receptor α (NR1H3), cDNA driver | 19.7 | 1.3 | 1.26 | 5951.9 | 18.5 | 18.48 | – | moderate activation | specific and strong activation
3 | SHP: Small Heterodimer Partner (NR0B2), cDNA driver (protein, UniProt Q15466 1-257, looked up) Nuclear receptor subfamily 0 …: MSTSQPGACPCQGAASRPAILYALLSSSLKAVPRPRSRCLCRQHRPVQLCAPHRTCREALDVLAKTVAFLRNLPSFWQLPPQDQRRLLQGCWGPLFLLGLAQDAVTFEVAEAPVPSILKKILLEEPSSSGGSGQLPDRPQPSLAAVQWLQCCLESFWSLELSPKEYACLKGTILFNPDVPGLQAASHIGHLQQEAHWVLCEVLEPWCPAAQGRLTRVLLTASTLKSIPTSLLGDLFFRPIIGDVDIAGLLGDMLLLR | 14.0 | 0.9 | 0.89 | 350.6 | 1.1 | 1.09 | – | – | –
